# Reference: US9387231B2, “Compositions comprising a Brd4 antagonist and methods for the treatment of HIV” (THE CHILDREN'S HOSPITAL OF PHILADELPHIA, priority 2011, dated 2016)
# How the values were obtained:
# Format in all cases: cell-based
# [1] = test system: HIV (NL43, SG3, BAL1 or BL2); assay: HIV infection of primary activated CD4 T-cells (p24 by flow cytometry or ELISA)
# Description: Primary CD4 T-cells were activated with anti-CD3/28, infected with NL43, SG3, BAL1, or BL2 (FIG. 1A) or NL43 (FIGS. 1B and 1C), and cultured in the presence of the BET antagonist JQ1(+) or the control enantiomer JQ1(−). FIG. 1A provides the expression of p24Gag in cells as determined by flow cytometry. FIGS. 1B and 1C show viral production as measured in culture supernatants by ELISA.
# (§1) Primary CD4 T-cells were activated with anti-CD3/28, then infected with HIV, NL43 or SG3, and cultured in the presence of JQ1(+) (1 μM or 0.1 μM) or media. At days 3, 6, 10 and 13 after infection, cell death was measured by percent of FSC/SSC (forward scatter/side scatter) as indicated in individual plots (FIGS. 8A and 8C). The expression of p24 in live cells was examined by flow cytometry and is shown as the percentage of p24+ cells (FIGS. 8B and 8D).
# BET antagonists inhibit viral infection in primary activated CD4 T-cells. Specifically, the effect of the BET antagonist JQ1(+) on viral replication was tested in HIV-infected T-cells. Primary activated CD4 T-cells were infected with X4-tropic virus (NL43 or SG3) or R5-tropic virus (BAL1 or BL2) in the presence or absence of JQ1(+) (1 μM). Viral infection was measured by flow cytometry or ELISA at various days after infection.
# (§2) Of note, mean fluorescence of p24 was unchanged in the presence of the active inhibitor, indicating there was not a non-specific toxic drug effect and supporting the observation that BET antagonism inhibits HIV production at late time points of infection in primary activated CD4 T-cells.
# Primary CD4 T-cells = assay: Cell death of HIV-infected primary CD4 T-cells (FSC/SSC); details: primary activated CD4 T-cells infected with NL43 or SG3, 0.1 μM, days 3-13
# Method: as §1, §2
# HIV-1 NL43 = assay: Viral integration in primary resting CD4 T-cells by Alu-PCR; details: for provirus/cell: NL43, 1 μM, T48 h, listed as JQ(+)
# Method: To determine if JQ1(+) affects viral integration in primary resting CD4 T-cells, the cells were purified and infected with HIV-1 NL43 or mock control. The infected cells were then cultured in the presence of 1 μM of JQ1(+) or JQ1(−) for 48 hours. Cell pellets were collected at 0 hours and 48 hours after infection. DNA was isolated and the viral integration in resting CD4 T-cells was measured by Alu-PCR.
# HIV LTR = assay: Reactivation of the HIV LTR in latently infected J-Lat clones (GFP by flow cytometry)
# Method: GFP expression was measured by flow cytometry. FIGS. 3B and 3C shown the percentage of cells positive for GFP (FIG. 3B) and the mean MFI of GFP (FIG. 3C) in latently infected cell lines, J-Lat clones 82, A72, A7, A2, and A1, at 16 hours after TNFα or PHA was added in the cultures in the presence of JQ1(+) or JQ1(−). […] GFP expression in cells was measured by flow cytometry and is indicated as percent of GFP+ cells in gated live cell populations. An average of 5 experiments is shown. * p<0.05, ** p<0.01, *** p<0.001. […] Average of 3 experiments is shown. * p<0.05. For FIG. 3F, J-Lat A2 and A72 cells were reactivated with TNFα (20 ng/ml) or HIV Tat protein (50 μg/ml) in the presence of JQ1(+) or JQ1(−) for 16-18 hours, and GFP expression in cells was measured by flow cytometry. One representative experiment is shown. In each dot plot, non-underlined numbers indicate percentage of GFP+ cells and underlined numbers indicate mean fluorescence of GFP (MFI).
# Next, the effect of JQ1 on activation of the HIV LTR was tested using a latently infected Jurkat-derived cell clone, J-Lat clone A2. GFP expression in J-Lat clone A2 is induced upon reactivation with tumor necrosis factor-alpha (TNFα) or phytohaemagglutinin (PHA).
# To further study the mechanism of how JQ1 drives reactivation of HIV latency, HIV latently infected T-cell lines—J-Lat clones A1, A2, A7, and A72—were utilized. The effect of JQ1(+) on reactivation of HIV latency in these cell lines were confirmed. TNFα (20 ng/ml) or PHA (1.5 μg/ml) was added to cultures of J-Lat clones in the presence of 1 μM JQ1(+) or JQ1(−). After 16 hours, expression of GFP was measured by flow cytometry. […] In the presence of HIV Tat, BET antagonism enhances Tat-driven transcription of the HIV LTR in J-Lat clones A2 and A72 (FIG. 3F; underlined numbers indicate mean GFP fluorescence, non-underlined numbers indicate percent of GFP+ cells). […] Displacement of Brd4 from chromatin by JQ1(+) may cause conformational change in the chromatin, exposing NF-κb binding sites, leading to increased HIV transcription and reactivation of latency.
smiles,measurement,setting,value
"Cc1sc2c(c1C)C(c1ccc(Cl)cc1)=N[C@@H](CC(=O)OC(C)(C)C)c1nnc(C)n1-2 [JQ1(+), tert-butyl 2-((6S)-4-(4-chlorophenyl)-2,3,9-trimethyl-6H-thieno[3,2-f][1,2,4]triazolo[4,3-a][1,4]diazepin-6-yl)acetate]",Viral infection at low concentration,"[1]; primary CD4 T-cells, NL43, 0.1 μM",inhibition of viral infection was also observed
same,"HIV infection (viral production, ELISA)","[1]; primary CD4 T-cells, NL43, days 3 and 6 after infection, p<0.05",significantly inhibited
same,Relative number of virus-expressing cells (percentage of p24+ cells),"[1]; primary activated CD4 T-cells, NL43 or SG3, 0.1 μM",still suppressed
same,Levels of infection,"[1]; primary activated CD4 T-cells, X4-tropic (NL43, SG3) or R5-tropic (BAL1, BL2) virus, 1 μM, flow cytometry or ELISA, various days",decrease
same,Mean fluorescence of p24,"[1]; primary activated CD4 T-cells, in the presence of the active inhibitor",unchanged
same,Cell death,Primary CD4 T-cells,did not cause cell death above control values
same,provirus/cell,"HIV-1 NL43; Exp. 1, primary resting CD4 T-cells",0.559 ± 0.005 provirus/cell
same,provirus/cell,"HIV-1 NL43; Exp. 2, primary resting CD4 T-cells",0.444 ± 0.120 provirus/cell
same,Viral integration,"HIV-1 NL43; primary resting CD4 T-cells, 1 μM, 48 hours, Alu-PCR",does not significantly affect
same,GFP expression (% positive cells and mean fluorescence intensity),"HIV LTR; J-Lat clone A2, with TNFα or PHA, 0.5 μM, 16 hours, versus JQ1(−) control",higher
same,Tat-driven transcription of the HIV LTR (GFP),"HIV LTR; J-Lat clones A2 and A72, HIV Tat protein 50 μg/ml, 16-18 hours",enhances
same,GFP expression with TNFα,"HIV LTR; J-Lat clones A72 and A2, TNFα 20 ng/ml plus compound 1 μM",dramatically enhanced
same,Percent of cells expressing GFP,"HIV LTR; J-Lat clones, compound alone, 1 μM, 16-18 hours",increased
